Assay results from US8859587B2, “(2E)-3-phenyl-N-[2,2,2-Trifluoro-1-[[8-quinolineamino)thiomethyl]amino]ethyl]-2-acrylamide and pharmaceutical uses thereof” (Chinese PLA General Hospital, priority 2010, dated 2014).
Several values for one entry are separate records, joined by “and”; a condition that tells them apart may be missing. Identical values can stand only once. Marks after values point to notes of the source that are not given here.

Key:
Assay type in all cases: cell-based, Wistar rats
[1] = system: cardiac muscle cells induced by Tunicamycin (TM); test: Survival rate of TM-induced cardiac muscle cells detected by MTT method; settings: TM 5 μg/ml alone, MTT
Method: The separation and culture of cardiomyocyte refer to the method of differential adhesion separation (Kreider, A. Messing, H. Doan, S. U. Kim, R. P. Lisak and D. E. Pleasure, Enrichment of Schwann cell cultures from neonatal rat sciatic nerve by differential adhesion, Brain Res 2 (1981), pp. 433-444.), Wistar neonate rats newly born within 24 h were used to obtain primary cardiac muscle cells.
The separated cardiac muscle cells were inoculated in an amount of 10^4 cells per well to a 96-well plate, and the volume of each well was 100 μl (marginal wells were filled with sterile PBS). […] After continuous inoculation, each well was added with 20 μl of MTT solution (5 mg/ml, formulated with PBS (pH=7.4), i.e., 0.5% MTT), and the cultivation was continued for 4 h. After the end of cultivation, culture medium in wells was carefully sucked out. Each well was added with 150 μl of DMSO, shaken at a low speed in a shaking table for 10 min, so that the crystal was sufficiently dissolved. The optical density (OD) value of each well was measured at wavelength of 490 nm by enzyme-linked immunoassay instrument, and each well was repeatedly measured for 3 times and the results were recorded. The cell survival rate at each time point was calculated according to: […], and a cell growth curve was drawn by using time as abscissa and optical density as ordinate.

[2] = system: primary cardiac muscle cells induced by TM; test: Cardiomyocyte apoptosis induced by TM, TUNEL detection; settings: TM 5 μg/mL alone, 24 h, n = 6
Method: (§1) The primary cardiac muscle cells obtained by the method according to the culture method of primary cardiac muscle cells of Example 1 were added with tunicamycin (TM) on the 4th day to perform interference test. The cells were randomly divided into 5 groups: solvent control group (DMSO), TM interference group (5 μg/ml), Compound of Formula I+TM interference group (10 μM+5 μg/ml), Compound of Formula I interference group ([…]+5 μg/ml), Compound of Formula I interference group ([…]+5 μg/ml).
It was 24 h after drug interference, the apoptotic cells were detected by terminal deoxynucleotidyl transferase-mediated biotinylated UTP nick end labeling (TUNEL) method, and the cells were treated according to the specification of kit. The cells treated with 0.1 mg/ml DNase I and growing on a glass slide were used as positive control. 5 or more visual fields were randomly selected under light microscope, the apoptotic cells (brown yellow granules seen in nucleus) among the cells were counted. Apoptosis rat=(number of positively stained nuclei/number of all nuclei)×100%.

[3] = system: primary cardiac muscle cells induced by TM; test: Cardiomyocyte apoptosis induced by TM, AnnexinV-FITC flow cytometer; settings: TM 5 μg/ml alone, 24 h
Method: as §1
it is 24 h after drug interference, the cells were treated by the method of AnnexinV-FITC apoptosis kit, and the apoptosis was detected within 1 h by using a flow cytometer (BD ACScalibur, US Becton-Dickinson Company). For each sample, 14000 cells were collected and analyzed, the test was repeated for 3 times, and the average value was used as a result.

[4] = system: caspase-12 and cleaved caspase-12; test: Western blot of caspase-12 and cleaved caspase-12 in TM-induced cardiac muscle cells; settings: TM 5 μg/ml induction alone
Method: (12000 rpm×10 min), collected supernatant. Nitrocellulose membrane was dipped in a transferring buffer for 15-20 min in advance. Sampled in 50 μg protein/lane, subjected to 10% polyacrylamide gel SDS-PAGE electrophoretic separation, the gel was then tiled in electrotransferring clamp, in which sponge, filter paper, gel, nitrocellulose membrane, filter paper and sponge were mounted from negative electrode to positive electrode in order. Constant current 350 mA, electrotransferred for 45 min. Electrotransferring membrane to […], the nitrocellulose membrane was taken out, the membrane was washed with TBST for 2 min, sealed with 5% defatted milk powder at room temperature for 1 h, added with first antibody (1:1000) and incubated at 4° C. overnight, the membrane was washed with TBST, 3 times×5 min, then […] second antibody was added, incubated at room temperature for 1 h, washed with TBST, 3 times×5 min, soaked separately with TSM1 and TSM2 for 5 min and 10 min, developed with chromogenic substrates 6.6 μl NBT and 3.3 μl BCIP dissolved in 1 ml of TSM2, after bonds become clear, the reaction was terminated by washing with water. After the end of development, the records were stored by scanning or taking photos.

Tunicamycin [TM, reference compound]
Cell survival rate (%) [1]: 58.8699 ± 10.7785 % | TUNEL detection (%) cardiomyocyte apoptosis rate [2]: 30.84 ± 1.26 ^a % | Cardiomyocyte apoptosis rate detected by flow cytometer (%) [3]: 29.98% and 29.98 ± 1.22^a % | expression of Cleaved caspase-12 [4]: obviously expressed
